Eight compounds from US10351522B2, “Sulfonamide derivative and pharmaceutically acceptable acid addition salt thereof” (UNIVERSITY OF TSUKUBA, priority 2015, dated 2019) can be followed below.

One experiment has as its target T1, human OX1R (Homo sapiens, UniProt O43613).
T1 construct: expressed in transfected cells; host or cells: CHO (Chinese hamster ovary) cells, line CHOOX1R, co-expressing NFAT-luciferase
T1 sequence (O43613 1-425): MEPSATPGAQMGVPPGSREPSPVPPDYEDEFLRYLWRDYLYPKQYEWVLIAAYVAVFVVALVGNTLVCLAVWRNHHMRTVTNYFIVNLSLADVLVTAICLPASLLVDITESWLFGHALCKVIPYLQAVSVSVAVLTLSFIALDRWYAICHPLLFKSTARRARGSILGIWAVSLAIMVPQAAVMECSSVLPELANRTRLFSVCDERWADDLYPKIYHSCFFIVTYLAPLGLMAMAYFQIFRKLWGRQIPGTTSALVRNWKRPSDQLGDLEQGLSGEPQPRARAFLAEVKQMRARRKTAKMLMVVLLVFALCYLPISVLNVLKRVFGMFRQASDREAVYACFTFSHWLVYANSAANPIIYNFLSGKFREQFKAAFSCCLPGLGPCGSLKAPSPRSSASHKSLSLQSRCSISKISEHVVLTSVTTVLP
The experiment is described as follows: Agonist activity against OX1R: intracellular calcium (Fura-2AM, FDSS7000) in CHOOX1R cells. The class given is cell-based. Particulars: relative to orexin-A as full agonist (100%). As to the method: (§1) Evaluation of Agonist Activity Against OX1R and OX2R
(§2) NAFT-luciferase gene and human OX1R gene were constitutively expressed in CHO cell, which is a cell line derived from Chinese hamster ovary to establish a cell line (CHOOX1R) and NAFT-luciferase gene and human OX2R gene were constitutively expressed in CHO cell to establish a cell line (CHOOX2R). The respective cells were seeded in a 96-well Multiplate at 10,000 cells/well and cultured in a 5% FBS (Thermo Scientific)-added DMEM medium (Sigma-Aldrich) for 48 hr. The medium was removed, an assay buffer (20 mM HEPES (Sigma-Aldrich), Hanks' balanced salt solution (Gibco), 0.1% BSA (Sigma-Aldrich), 2.5 mM probenecid acid (Wako Pure Chemical Industries, Ltd.)) (100 μL) containing 5 μM Fura-2AM (Cayman Chemical) was added, and the cells were incubated for 60 min. The buffer containing Fura-2AM was removed, and an assay buffer (75 μL) was added. An assay buffer (25 μL) containing a test compound was added thereto to start the reaction. Changes in the intracellular calcium ion concentration due to the reaction were measured by measuring the fluorescence intensity ratio by dual wavelength excitation at 340 and 380 nm, by using FDSS7000 (Hamamatsu Photonics K.K.). The test compound was dissolved in DMSO to 10 mM, and diluted with the assay buffer to a final concentration of 10^−7M to 10^−5M (final concentration of DMSO 1%).
(§3) (As used herein, Response in Table 21 to Table 27 is a value obtained by dividing the agonist activity value, when the test compound is evaluated with orexin-A as a full-agonist (maximum value of agonist activity: 100%), at 10 μM, 1.0 μM, 0.1 μM by the agonist activity value of orexin-A.)
Background: A change in cytosolic calcium serves as a functional read-out for many receptors and channels.

The next experiment deals with T2, human OX2R (Homo sapiens, UniProt O43614).
T2 construct: expressed in transfected cells; host or cells: CHO (Chinese hamster ovary) cells, line CHOOX2R, co-expressing NFAT-luciferase
T2 sequence (O43614 1-444): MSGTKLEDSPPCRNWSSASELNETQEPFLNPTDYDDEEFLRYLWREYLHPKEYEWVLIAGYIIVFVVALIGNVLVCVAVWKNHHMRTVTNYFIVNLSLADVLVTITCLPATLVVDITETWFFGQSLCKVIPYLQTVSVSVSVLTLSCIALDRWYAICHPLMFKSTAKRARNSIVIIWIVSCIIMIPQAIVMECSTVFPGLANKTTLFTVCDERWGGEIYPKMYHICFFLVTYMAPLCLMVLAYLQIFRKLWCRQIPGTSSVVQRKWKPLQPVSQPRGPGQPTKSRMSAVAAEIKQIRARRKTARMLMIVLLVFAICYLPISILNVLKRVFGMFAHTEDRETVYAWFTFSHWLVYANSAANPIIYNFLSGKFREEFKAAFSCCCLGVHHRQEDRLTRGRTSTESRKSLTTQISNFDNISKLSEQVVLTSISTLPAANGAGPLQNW
The experiment is described as follows: Agonist activity against OX2R: intracellular calcium (Fura-2AM, FDSS7000) in CHOOX2R cells. The class given is cell-based. The note with it: relative to orexin-A as full agonist (100%). As to the method:
as §1, §2, §3

On to `COc1ccc(-c2cccc(C(=O)N(C)C)c2)cc1S(=O)(=O)Nc1cccc(NC(=O)Nc2ccccn2)c1` [Example 68], for which the “Response (%) OX1R” value on human OX1R (0.1 μM test compound), at human OX1R (1.0 μM test compound) and on human OX1R (10 μM test compound) was 6% each time. Besides, the figures for the “Response (%) OX2R” value on human OX2R (0.1 μM test compound), on human OX2R (1.0 μM test compound) and on human OX2R (10 μM test compound) were 10%, 10% and 57%, respectively.

In the case of `COc1ccc(Nc2c(Nc3cccc(NS(=O)(=O)c4cc(-c5cccc(C(=O)N(C)C)c5)ccc4OC)c3)c(=O)c2=O)cc1` [Example 81], the “Response (%) OX1R” value is given as under 5% on human OX1R (test compound 0.1 μM), under 5% on human OX1R (test compound 1.0 μM) and 7% at human OX1R (test compound 10 μM). Also, the “Response (%) OX2R” value was under 5% on human OX2R (test compound 0.1 μM), under 5% on human OX2R (test compound 1.0 μM) and 27% on human OX2R (test compound 10 μM).

For `COc1ccc(-c2cccc(C(=O)N(C)C)c2)cc1S(=O)(=O)Nc1cccc(NC(=O)c2cccc(C)c2)c1` [Example 15], the “Response (%) OX1R” value on human OX1R (0.1 μM test compound), on human OX1R (1.0 μM test compound) and at human OX1R (10 μM test compound) was under 5% throughout. For the same compound, the “Response (%) OX2R” value at human OX2R (0.1 μM test compound) stood at 12%; on human OX2R (1.0 μM test compound) it was 81%; at human OX2R (10 μM test compound), 114%.

As for `COc1cccc(CNc2cccc(NS(=O)(=O)c3cc(-c4cccc(C(=O)N(C)C)c4)ccc3OC)c2)c1` [Example 23], the “Response (%) OX1R” value on human OX1R (0.1 μM test compound) is given as under 5%; at human OX1R (1.0 μM test compound), 10%; on human OX1R (10 μM test compound), 51%. Besides, the “Response (%) OX2R” value is on record as 54% on human OX2R (0.1 μM test compound), 95% on human OX2R (1.0 μM test compound) and 86% at human OX2R (10 μM test compound).

As to `COc1ccc(-c2cccc(C(=O)N(C)C)c2)cc1S(=O)(=O)Nc1cccc(NC(=O)Nc2cccc(Br)c2)c1` [Example 50], the “Response (%) OX1R” value at human OX1R (0.1 μM test compound), on human OX1R (1.0 μM test compound) and at human OX1R (10 μM test compound) was under 5% throughout. Besides, the “Response (%) OX2R” value on human OX2R (0.1 μM test compound) is 100%; at human OX2R (1.0 μM test compound), 94%; at human OX2R (10 μM test compound), 97%.

For the compound `COc1cccc(NC(=O)Nc2cccc(NS(=O)(=O)c3cc(-c4cccc(C(=O)N(C)C)c4)ccc3OC)c2)c1` [Example 44], the “Response (%) OX1R” value at human OX1R (0.1 μM test compound) is under 5%; at human OX1R (1.0 μM test compound), under 5%; on human OX1R (10 μM test compound), 10%. For the same compound, the “Response (%) OX2R” value was 100% on human OX2R (0.1 μM test compound), 104% on human OX2R (1.0 μM test compound) and 95% on human OX2R (10 μM test compound).

In the case of `COc1ccc(-c2cccc(C(=O)N(C)C)c2)cc1S(=O)(=O)Nc1cccc(N2CCCN(c3cccc(N(C)C)c3)C2=O)c1` [Example 134], the “Response (%) OX1R” value came to 9% on human OX1R (test compound 0.1 μM), 13% on human OX1R (test compound 1.0 μM) and 84% at human OX1R (test compound 10 μM). For the same compound, the “Response (%) OX2R” value at human OX2R (test compound 0.1 μM) turned out to be 101%; on human OX2R (test compound 1.0 μM), 76%; on human OX2R (test compound 10 μM), 75%.

Regarding `CCN(Cc1cccnc1)C(=O)c1ccc(OC)c(S(=O)(=O)Nc2cccc(NC(=O)Nc3ccccc3N(C)C)c2)c1` [Example 113], the “Response (%) OX1R” value on human OX1R (test compound 0.1 μM), at human OX1R (test compound 1.0 μM) and at human OX1R (test compound 10 μM) was under 5% in each case. Moreover, the “Response (%) OX2R” value is listed as under 5% at human OX2R (test compound 0.1 μM), 6% at human OX2R (test compound 1.0 μM) and 73% at human OX2R (test compound 10 μM).
